In ChEMBL document CHEMBL3885861, “Open TG-GATES”:

Organism: Rattus norvegicus
Assay: Open TG-GATES - Regimen: Single
Type: toxicity, organism-based, Sprague-Dawley
Set-up: regimen Single, gender Male, age 6 weeks
Conditions: in vivo, ip, 0.03 mg/kg, route intraperitoneal injection, dose 30 ug/Kg, dose level Low; for APTT / Bas / Eos / Fbg / Hb / Ht / Lym / MCH / MCHC / MCV / Mono / Neu / PT / Plat / RBC / Ret / WBC: tissue Blood; for KIDNEY_L / KIDNEY_R / KIDNEY_TOTAL: tissue Kidney; for LIVER: tissue Liver; for A/G / ALP / ALT / AST / BUN / CRE / Ca / Cl / DBIL / GLC / IP / K / LDH / Na / PL / RALB / TBIL / TC / TG / TP / gamma-GTP: tissue Plasma

CC(=O)N[C@H]1[C@@H](O[C@@H]2O[C@H](CC(O)[C@H]3O[C@@H](n4ccc(=O)[nH]c4=O)[C@H](O)[C@@H]3O)[C@H](O)[C@H](O)[C@H]2NC(=O)/C=C/CC(C)C)O[C@H](CO)[C@@H](N)[C@@H]1O (some centres not stated) [TUNICAMYCIN]
TERMINAL_BW (3 h): 222.8 g | APTT (3 h): 22.4 s | Bas (3 h): 0% | Eos (3 h): 0.6% | Fbg (3 h): 302.4 mg/dL | Hb (3 h): 13 g/dL | Ht (3 h): 39.3% | Lym (3 h): 81% | MCH (3 h): 20.5 pg | MCHC (3 h): 33% | MCV (3 h): 62.1 fL | Mono (3 h): 3% | Neu (3 h): 14.4% | PT (3 h): 15.7 s | Plat (3 h): 115.4 x10_4/uL | RBC (3 h): 633.2 x10_4/ul | Ret (3 h): 8.1% | WBC (3 h): 99.9 x10_2/uL | KIDNEY_L (3 h): 1 g | KIDNEY_R (3 h): 1 g | KIDNEY_TOTAL (3 h): 2 g | LIVER (3 h): 10.4 g | A/G (3 h): 1.2 | ALP (3 h): 1404.2 IU/L | ALT (3 h): 37.6 IU/L | AST (3 h): 69.6 IU/L | BUN (3 h): 15.4 mg/dL | CRE (3 h): 0.2 mg/dL | Ca (3 h): 10.8 mg/dL | Cl (3 h): 106 meq/L | DBIL (3 h): 0 mg/dL | GLC (3 h): 173.4 mg/dL | IP (3 h): 7.5 mg/dL | K (3 h): 4.5 meq/L | LDH (3 h): 151.2 IU/L | Na (3 h): 140.8 meq/L | PL (3 h): 126 mg/dL | RALB (3 h): 2.9 g/dL | TBIL (3 h): 0.01 mg/dL | TC (3 h): 71.8 mg/dL | TG (3 h): 78.6 mg/dL | TP (3 h): 5.4 g/dL | gamma-GTP (3 h): 1.4 IU/L | TERMINAL_BW (6 h): 219.6 g | APTT (6 h): 21.8 s | Bas (6 h): 0% | Eos (6 h): 0.4% | Fbg (6 h): 295 mg/dL | Hb (6 h): 13.2 g/dL | Ht (6 h): 39.8% | Lym (6 h): 77.8% | MCH (6 h): 20.9 pg | MCHC (6 h): 33% | MCV (6 h): 63.3 fL | Mono (6 h): 2% | Neu (6 h): 18.6% | PT (6 h): 15.6 s | Plat (6 h): 114.3 x10_4/uL | RBC (6 h): 629.2 x10_4/ul | Ret (6 h): 7.1% | WBC (6 h): 90.7 x10_2/uL | KIDNEY_L (6 h): 1 g | KIDNEY_R (6 h): 1 g | KIDNEY_TOTAL (6 h): 2 g | LIVER (6 h): 9.8 g | A/G (6 h): 1.2 | ALP (6 h): 1356.2 IU/L | ALT (6 h): 42.6 IU/L | AST (6 h): 74.6 IU/L | BUN (6 h): 12.6 mg/dL | CRE (6 h): 0.2 mg/dL | Ca (6 h): 10.8 mg/dL | Cl (6 h): 105.2 meq/L | DBIL (6 h): 0 mg/dL | GLC (6 h): 168.2 mg/dL | IP (6 h): 8.9 mg/dL | K (6 h): 4.4 meq/L | LDH (6 h): 157.8 IU/L | Na (6 h): 141.2 meq/L | PL (6 h): 120.6 mg/dL | RALB (6 h): 2.9 g/dL | TBIL (6 h): 0.018 mg/dL | TC (6 h): 69.2 mg/dL | TG (6 h): 57.6 mg/dL | TP (6 h): 5.3 g/dL | gamma-GTP (6 h): 1.2 IU/L | TERMINAL_BW (9 h): 213.3 g | APTT (9 h): 23.6 s | Bas (9 h): 0% | Eos (9 h): 0.6% | Fbg (9 h): 315.4 mg/dL | Hb (9 h): 13.5 g/dL | Ht (9 h): 41% | Lym (9 h): 83.8% | MCH (9 h): 21 pg | MCHC (9 h): 32.9% | MCV (9 h): 63.8 fL | Mono (9 h): 2% | Neu (9 h): 12.8% | PT (9 h): 15.8 s | Plat (9 h): 112.5 x10_4/uL | RBC (9 h): 643.2 x10_4/ul | Ret (9 h): 7.5% | WBC (9 h): 85.7 x10_2/uL | KIDNEY_L (9 h): 0.9 g | KIDNEY_R (9 h): 1 g | KIDNEY_TOTAL (9 h): 1.9 g | LIVER (9 h): 8.9 g | A/G (9 h): 1.2 | ALP (9 h): 1454.8 IU/L | ALT (9 h): 36.4 IU/L | AST (9 h): 71.2 IU/L | BUN (9 h): 12.8 mg/dL | CRE (9 h): 0.1 mg/dL | Ca (9 h): 10.8 mg/dL | Cl (9 h): 106 meq/L | DBIL (9 h): 0 mg/dL | GLC (9 h): 181 mg/dL | IP (9 h): 9.3 mg/dL | K (9 h): 4.4 meq/L | LDH (9 h): 174 IU/L | Na (9 h): 142.2 meq/L | PL (9 h): 129 mg/dL | RALB (9 h): 3 g/dL | TBIL (9 h): 0.01 mg/dL | TC (9 h): 75.4 mg/dL | TG (9 h): 70.4 mg/dL | TP (9 h): 5.5 g/dL | gamma-GTP (9 h): 1 IU/L | TERMINAL_BW (24 h): 234.5 g | APTT (24 h): 21.3 s | Bas (24 h): 0% | Eos (24 h): 0.8% | Fbg (24 h): 308.6 mg/dL | Hb (24 h): 12.8 g/dL | Ht (24 h): 39.3% | Lym (24 h): 82% | MCH (24 h): 20.1 pg | MCHC (24 h): 32.5% | MCV (24 h): 61.6 fL | Mono (24 h): 2.6% | Neu (24 h): 13.4% | PT (24 h): 15.7 s | Plat (24 h): 114.8 x10_4/uL | RBC (24 h): 637.8 x10_4/ul | Ret (24 h): 7.4% | WBC (24 h): 75.9 x10_2/uL | KIDNEY_L (24 h): 1 g | KIDNEY_R (24 h): 1.1 g | KIDNEY_TOTAL (24 h): 2.1 g | LIVER (24 h): 11.1 g | A/G (24 h): 1.2 | ALP (24 h): 1690.8 IU/L | ALT (24 h): 40.4 IU/L | AST (24 h): 67.8 IU/L | BUN (24 h): 16.6 mg/dL | CRE (24 h): 0.1 mg/dL | Ca (24 h): 10.4 mg/dL | Cl (24 h): 105.6 meq/L | DBIL (24 h): 0 mg/dL | GLC (24 h): 183.4 mg/dL | IP (24 h): 7.3 mg/dL | K (24 h): 4.6 meq/L | LDH (24 h): 148 IU/L | Na (24 h): 141.2 meq/L | PL (24 h): 141.6 mg/dL | RALB (24 h): 3 g/dL | TBIL (24 h): 0.006 mg/dL | TC (24 h): 76.4 mg/dL | TG (24 h): 98.6 mg/dL | TP (24 h): 5.6 g/dL | gamma-GTP (24 h): 1.4 IU/L
